Measurements published in PubChem BioAssay AID1919009 (Molecular Pharmacology Branch, DTP, NCI, 2023).

Tested on: K24384-001-R-PDC complex spheroid growth
Test: Anticancer human tumor K24384-001-R-PDC patient-derived pancreatic adenocarcinoma cell line growth inhibition [AhR]
Conditions: for IC50: curve of first compound; for viability, T/C: stronger effect = lower value
Outline: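 Spheroids combined tumor cells with HUVEC endothelial cells and human MSCs as stroma. AhR antagonists were paired with standard or investigational drugs, each dosed in half-log steps down from near clinical Cmax, or from 10 microM where Cmax was unknown.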

[1] = second compound 0.1 µM, first compound 0.000949 µM
[2] = second compound 0.1 µM, first compound 0.003 µM
[3] = second compound 0.1 µM, first compound 0.00949 µM
[4] = second compound 0.1 µM, first compound 0.03 µM
[5] = second compound 0.1 µM, first compound 0.0949 µM
[6] = second compound 0.1 µM, first compound 0.3 µM
[7] = second compound 0.316 µM, first compound 0.000949 µM
[8] = second compound 0.316 µM, first compound 0.003 µM
[9] = second compound 0.316 µM, first compound 0.00949 µM
[10] = second compound 0.316 µM, first compound 0.03 µM
[11] = second compound 0.316 µM, first compound 0.0949 µM
[12] = second compound 0.316 µM, first compound 0.3 µM
[13] = second compound 1 µM, first compound 0.000949 µM
[14] = second compound 1 µM, first compound 0.003 µM
[15] = second compound 1 µM, first compound 0.00949 µM
[16] = second compound 1 µM, first compound 0.03 µM
[17] = second compound 1 µM, first compound 0.0949 µM
[18] = second compound 1 µM, first compound 0.3 µM
[19] = second compound 3.16 µM, first compound 0.000949 µM
[20] = second compound 3.16 µM, first compound 0.003 µM
[21] = second compound 3.16 µM, first compound 0.00949 µM
[22] = second compound 3.16 µM, first compound 0.03 µM
[23] = second compound 3.16 µM, first compound 0.0949 µM
[24] = second compound 3.16 µM, first compound 0.3 µM
[25] = second compound 10 µM, first compound 0.000949 µM
[26] = second compound 10 µM, first compound 0.003 µM
[27] = second compound 10 µM, first compound 0.00949 µM
[28] = second compound 10 µM, first compound 0.03 µM
[29] = second compound 10 µM, first compound 0.0949 µM
[30] = second compound 10 µM, first compound 0.3 µM
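Wherever viability, T/C is given: percent of DMSO vehicle-treated spheroid viability set as 100%.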

`CC(C)CC(NC(=O)C(Cc1ccccc1)NC(=O)c1cnccn1)B(O)O` (stereo not given) + Cc1ccccc1N=Nc1ccc(NC(=O)c2ccnn2C)c(C)c1 was tested, and the IC50 (second compound 0.1 µM) was 10.7 nM, the IC50 (second compound 0.316 µM) was 9.9 nM and the IC50 (second compound 1 µM) was 11.2 nM. For the same molecule, the IC50 (second compound 3.16 µM) was 9.78 nM, the IC50 (second compound 10 µM) was 10.5 nM and the viability, T/C [1] was 106%. For the same molecule, the viability, T/C [2] was 90%, the viability, T/C [3] was 57.3% and the viability, T/C [4] was 1.13%. It also gave a viability, T/C [5] of 0.15%, a viability, T/C [6] of 0.42% and a viability, T/C [7] of 95.3%. The viability, T/C [8] was 76.8%, the viability, T/C [9] was 54% and the viability, T/C [10] was 1.07%. It also gave a viability, T/C [11] of 0.38%, a viability, T/C [12] of 0.33% and a viability, T/C [13] of 104%. It also gave a viability, T/C [14] of 79.5%, a viability, T/C [15] of 60.4% and a viability, T/C [16] of 1.14%. For the same molecule, the viability, T/C [17] was 0.44%, the viability, T/C [18] was 0.38% and the viability, T/C [19] was 83.9%. For the same molecule, the viability, T/C [20] was 102%, the viability, T/C [21] was 51.3% and the viability, T/C [22] was 1.31%. The viability, T/C [23] was 0.31%, the viability, T/C [24] was 0.48% and the viability, T/C [25] was 97.4%. The viability, T/C [26] was 115%, the viability, T/C [27] was 54.7% and the viability, T/C [28] was 2.19%. The viability, T/C [29] was 1.72% and the viability, T/C [30] was 0.66%.
`CCc1c2c(nc3ccc(O)cc13)-c1cc3c(c(=O)n1C2)COC(=O)[C@]3(O)CC` + Cc1ccccc1N=Nc1ccc(NC(=O)c2ccnn2C)c(C)c1 gave an IC50 (second compound 0.1 µM) of 8.69 nM, an IC50 (second compound 0.316 µM) of 29.2 nM and an IC50 (second compound 1 µM) of 8.68 nM. For the same molecule, the IC50 (second compound 3.16 µM) was 19.8 nM, the IC50 (second compound 10 µM) was 68 nM and the viability, T/C [1] was 74.2%. The viability, T/C [2] was 72.8%, the viability, T/C [3] was 48.1% and the viability, T/C [4] was 48.9%. For the same molecule, the viability, T/C [5] was 49.8%, the viability, T/C [6] was 36.7% and the viability, T/C [7] was 96.2%. It also gave a viability, T/C [8] of 77.7%, a viability, T/C [9] of 58.1% and a viability, T/C [10] of 51.6%. It also gave a viability, T/C [11] of 41.9%, a viability, T/C [12] of 31.4% and a viability, T/C [13] of 77.4%. For the same molecule, the viability, T/C [14] was 100%, the viability, T/C [15] was 46.7% and the viability, T/C [16] was 45.2%. It also gave a viability, T/C [17] of 47.6%, a viability, T/C [18] of 30.8% and a viability, T/C [19] of 73.3%. It also gave a viability, T/C [20] of 62%, a viability, T/C [21] of 55.6% and a viability, T/C [22] of 46.1%. For the same molecule, the viability, T/C [23] was 41.5%, the viability, T/C [24] was 30% and the viability, T/C [25] was 94%. For the same molecule, the viability, T/C [26] was 82%, the viability, T/C [27] was 64.3% and the viability, T/C [28] was 65.7%. It also gave a viability, T/C [29] of 48.6% and a viability, T/C [30] of 29.3%.
`Nc1ccccc1NC(=O)c1ccc(CNC(=O)OCc2cccnc2)cc1` + Cc1ccccc1N=Nc1ccc(NC(=O)c2ccnn2C)c(C)c1 was tested, and the IC50 (second compound 0.1 µM) was 1810 nM, the IC50 (second compound 0.316 µM) was 1710 nM and the IC50 (second compound 1 µM) was 1330 nM. For the same molecule, the IC50 (second compound 3.16 µM) was 1410 nM, the IC50 (second compound 10 µM) was 1500 nM and the viability, T/C (second compound 0.1 µM, first compound 0.0316 µM) was 100%. For the same molecule, the viability, T/C (second compound 0.1 µM, first compound 0.1 µM) was 93.9%, the viability, T/C (second compound 0.1 µM, first compound 0.316 µM) was 83.2% and the viability, T/C (second compound 0.1 µM, first compound 1 µM) was 63.6%. For the same molecule, the viability, T/C (second compound 0.1 µM, first compound 3.16 µM) was 37%, the viability, T/C (second compound 0.1 µM, first compound 10 µM) was 7.04% and the viability, T/C (second compound 0.316 µM, first compound 0.0316 µM) was 105%. The viability, T/C (second compound 0.316 µM, first compound 0.1 µM) was 104%, the viability, T/C (second compound 0.316 µM, first compound 0.316 µM) was 78.2% and the viability, T/C (second compound 0.316 µM, first compound 1 µM) was 68.7%. It also gave a viability, T/C (second compound 0.316 µM, first compound 3.16 µM) of 32.3%, a viability, T/C (second compound 0.316 µM, first compound 10 µM) of 6.55% and a viability, T/C (second compound 1 µM, first compound 0.0316 µM) of 95.1%. For the same molecule, the viability, T/C (second compound 1 µM, first compound 0.1 µM) was 94.7%, the viability, T/C (second compound 1 µM, first compound 0.316 µM) was 67.9% and the viability, T/C (second compound 1 µM, first compound 1 µM) was 60.2%. It also gave a viability, T/C (second compound 1 µM, first compound 3.16 µM) of 30.4%, a viability, T/C (second compound 1 µM, first compound 10 µM) of 5.37% and a viability, T/C (second compound 3.16 µM, first compound 0.0316 µM) of 85.9%. The viability, T/C (second compound 3.16 µM, first compound 0.1 µM) was 78.3%, the viability, T/C (second compound 3.16 µM, first compound 0.316 µM) was 80.6% and the viability, T/C (second compound 3.16 µM, first compound 1 µM) was 52.9%. It also gave a viability, T/C (second compound 3.16 µM, first compound 3.16 µM) of 34%, a viability, T/C (second compound 3.16 µM, first compound 10 µM) of 4.36% and a viability, T/C (second compound 10 µM, first compound 0.0316 µM) of 81.8%. The viability, T/C (second compound 10 µM, first compound 0.1 µM) was 84.1%, the viability, T/C (second compound 10 µM, first compound 0.316 µM) was 80.4% and the viability, T/C (second compound 10 µM, first compound 1 µM) was 54.5%. For the same molecule, the viability, T/C (second compound 10 µM, first compound 3.16 µM) was 35.2% and the viability, T/C (second compound 10 µM, first compound 10 µM) was 6.31%.
